# Test results: patent publication US5451411A, “Methods and compositions for the oral delivery of therapeutic agents” (University of Washington, priority 1993, dated 1995)
# Tested on: mink lung epithelial cells (ATCC #CCL64)
# Test: Growth inhibitory assay (GIA) bioactivity of released TGF-β1
# Assay type: cell-based
# Details: acid treated beads 75:10 w/w PAA 90 kDa; PBS pH 7.4
# Method: Alginate beads containing TGF-β1 and 90 kDa PAA (75:10 w/w in alginate:PAA) were prepared following the procedure of Example 1, and were acid treated for 30 minutes at 37° C. in 0.1 N HCl, as described in Example 2. The beads were then placed in PBS, pH 7.4, and the immunoreactivity of released TGF-β1 was determined by ^125 I radiolabel and ELISA, as described in Example 2. In addition, a growth inhibitory assay (GIA) was used to determine the bioactivity of the TGF-β1. The GIA measures the ability of TGF-β1 to inhibit the growth of mink lung epithelial cells (ATCC #CCL64) (T. Ikedaet al., "Human Transforming Growth Factor Type β2: Production By a Prostatic Adenocarcinoma Cell Line, Purification and Initial Characterization," Biochemistry 26:2406-2410 (1987)). The activity of the growth factor was determined by the inhibitory response of the cells to different concentrations of TGF-β1. Cell viability was based on the enzymatic cleavage by metabolically active cells of a tetrazolium salt into an orange/red formazan product. Prior to the assay cells were trypsinized and plated in a 96-well flat bottomed plate (Costar) at a concentration of 1000 cells/well. […] The cells were then incubated for 7 hours and the plates read on a microplate reader at an absorbance of 450 nm with a 630 nm reference filter. The specific activity of a sample was calculated relative to the reference material.
substance,measurement,value
"TGF-β1: TGF-β1 (1 mg/mL in 5 mM HCl) obtained from Bristol-Myers Squibb (Seattle, WA)",TGF-β1 bioactive (GIA),more than 85%
